In patent publication US20240315989A1 (priority 2021, published 2024):
Read-outs that look alike come from different tables or passages of the source.

Key:
[1] = test system: COVID-19 (SARS-CoV-2 infection)
[2] = test system: COVID-19; conditions: follow-up questionnaire
[3] = test system: COVID-19
[4] = cited from earlier work
[5] = cited from earlier work; remark: listed apart in the source
[6] = intent to treat analysis of 1649 participants
[7] = pooled, fluvoxamine vs blinded placebo
[8] = two randomized trials pooled, intent to treat

COCCCC/C(=N\OCCN)c1ccc(C(F)(F)F)cc1.O=C(O)/C=C\C(=O)O [fluvoxamine, 5-methoxy-4′-(trifluoromethyl)valerophenone-(E)-O-(2-aminoethyl)oxime maleate (1:1)]
Clinical status on 7-point scale, difference between group means vs placebo [1]: −0.22
Most severe baseline symptom change score, difference between group means vs placebo [1]: 0.3
30-d post trial observation events, % ([1]; 30 days after day 15): (1.3) %
Most severe baseline symptom change score (difference between baseline and final rating) ([1]; day 0 to day 15, 0-10 scale): −5.6
30-d post trial observation events, absolute difference vs placebo ([1]; difference in proportions): −0.1
Absolute difference vs placebo, 7-point scale 0 (none) ([1]; difference in proportions): 8.3
Absolute difference vs placebo, 7-point scale 1 ([1]; difference in proportions): −2.8
Absolute difference vs placebo, 7-point scale 3 ([1]; difference in proportions): −4.2
Absolute difference vs placebo, 7-point scale 5 ([1]; difference in proportions): −1.4
Absolute difference vs placebo, 7-point scale any nonzero value ([1]; difference in proportions): −8.3
Clinical status on 7-point scale, mean (SD) ([1]; n = 80): 0
WHO scale, 0-1 = uninfected or ambulatory, % ([1]; n = 80): (100%)
WHO scale, 2 = limitation of activities, % ([1]; n = 80): (0%)
WHO scale, 2 = limitation of activities, No ([1]; n = 80): 0
WHO scale, 3 = hospitalized, no O2 needed, % ([1]; n = 80): (0%)
WHO scale, 3 = hospitalized, no O2 needed, No ([1]; n = 80): 0
WHO scale, 4 = hospitalized, O2 needed, % ([1]; n = 80): (0%)
WHO scale, 4 = hospitalized, O2 needed, No ([1]; n = 80): 0
WHO scale, 5 = non-invasive vent or high-flow O2, % ([1]; n = 80): (0%)
WHO scale, 5 = non-invasive vent or high-flow O2, No ([1]; n = 80): 0
WHO scale, 6 = ventilator needed, % ([1]; n = 80): (0%)
WHO scale, 6 = ventilator needed, No ([1]; n = 80): 0
WHO scale, 7 = ventilator + additional organ support, % ([1]; n = 80): (0%)
WHO scale, 7 = ventilator + additional organ support, No ([1]; n = 80): 0
WHO scale, 8 = Death, % ([1]; n = 80): (0%)
WHO scale, total participants with values >1, % ([1]; n = 80): (0%)
WHO scale, total participants with values >1, No ([1]; n = 80): 0
7-point scale, 1 = O2 sat <92% but no supplemental O2, % ([1]; n = 80, 15 days): (0%)
7-point scale, 1 = O2 sat <92% but no supplemental O2, No ([1]; n = 80, 15 days): 0
7-point scale, 2 = Above + supplemental O2 needed, % ([1]; n = 80, 15 days): (0%)
7-point scale, 2 = Above + supplemental O2 needed, No ([1]; n = 80, 15 days): 0
7-point scale, 3 = Above + hospitalization needed, % ([1]; n = 80, 15 days): (0%)
7-point scale, 3 = Above + hospitalization needed, No ([1]; n = 80, 15 days): 0
7-point scale, 4 = Above + ventilator needed (<3 days), % ([1]; n = 80, 15 days): (0%)
7-point scale, 4 = Above + ventilator needed (<3 days), No ([1]; n = 80, 15 days): 0
7-point scale, 5 = Above + ventilator needed (≥3 days), % ([1]; n = 80, 15 days): (0%)
7-point scale, 5 = Above + ventilator needed (≥3 days), No ([1]; n = 80, 15 days): 0
7-point scale, 6 = Death, % ([1]; n = 80, 15 days): (0%)
7-point scale, total participants with values >0 (any nonzero value), No ([1]; n = 80, 15 days): 0
7-point scale, total participants with values >0, % ([1]; n = 80, 15 days): (0%)
30-d post trial observation events (emergency department visit, hospitalization, or both), No. ([1]; of 80, 30 days after day 15): 1
Maximum dose tolerated over 15 days 200 mg/day (100 twice daily), % (STOP COVID trial dosing): (45%)
Maximum dose tolerated over 15 days 200 mg/day (100 twice daily), Number (STOP COVID trial dosing): 36
Maximum dose tolerated over 15 days 300 mg/day (100 three times daily), % (STOP COVID trial dosing): (50%)
Maximum dose tolerated over 15 days 300 mg/day (100 three times daily), Number (STOP COVID trial dosing): 40
Not able to reach 200 mg/day, % (STOP COVID trial dosing): (5%)
Not able to reach 200 mg/day, Number (STOP COVID trial dosing): 4
Acute on chronic respiratory failure, % (StopCovid, N = 80): (0%)
Acute on chronic respiratory failure, number (StopCovid, N = 80): 0
Bacterial infection, % (StopCovid, N = 80): (1.3%)
Bacterial infection, number (StopCovid, N = 80): 1
Chest pain or tightness, % (StopCovid, N = 80): (0%)
Chest pain or tightness, number (StopCovid, N = 80): 0
Fever, % (StopCovid, N = 80): (0%)
Fever, number (StopCovid, N = 80): 0
Flank pain, % (StopCovid, N = 80): (0%)
Flank pain, number (StopCovid, N = 80): 0
Gastroenteritis, nausea, or vomiting, % (StopCovid, N = 80): (1.3%)
Gastroenteritis, nausea, or vomiting, number (StopCovid, N = 80): 1
Headache or head pain, % (StopCovid, N = 80): (2.5%)
Headache or head pain, number (StopCovid, N = 80): 2
Number of patients with any serious adverse event (StopCovid, N = 80): 1
Number of patients with any serious adverse event, % (StopCovid, N = 80): (1.3%)
Number with any adverse event (StopCovid, N = 80): 12
Number with any adverse event, % (StopCovid, N = 80): (15%)
Pneumonia, % (StopCovid, N = 80): (3.8%)
Pneumonia, number (StopCovid, N = 80): 3
Shortness of breath, % (StopCovid, N = 80): (2.5%)
Shortness of breath, number (StopCovid, N = 80): 2
Teeth chattering, % (StopCovid, N = 80): (1.3%)
Teeth chattering, number (StopCovid, N = 80): 1
Vasovagal syncope, % (StopCovid, N = 80): (1.3%)
Vasovagal syncope, number (StopCovid, N = 80): 1
hypercapnia, % (StopCovid, N = 80): (0%)
hypercapnia, number (StopCovid, N = 80): 0
muscle aches, % (StopCovid, N = 80): (1.3%)
muscle aches, number (StopCovid, N = 80): 1
Acute respiratory failure, No. of adverse events (%) (n = 80, 15 days): 0 No. (%)
Bacterial infection, No. of adverse events (%) (n = 80, 15 days): 1 (1.3) No. (%)
Chest pain or tightness, No. of adverse events (%) (n = 80, 15 days): 0 No. (%)
Fever, No. of adverse events (%) (n = 80, 15 days): 0 No. (%)
Flank pain, No. of adverse events (%) (n = 80, 15 days): 0 No. (%)
Gastroenteritis, nausea, or vomiting, No. of adverse events (%) (n = 80, 15 days): 1 (1.3) No. (%)
Headache or head pain, No. of adverse events (%) (n = 80, 15 days): 2 (2.5) No. (%)
Hypercapnia, No. of adverse events (%) (n = 80, 15 days): 0 No. (%)
Muscle aches, No. of adverse events (%) (n = 80, 15 days): 1 (1.3) No. (%)
Other adverse events, by No. of patients (%) (n = 80, 15 days): 11 (13.8) No. (%)
Pneumonia, No. of adverse events (%) (n = 80, 15 days): 3 (3.8) No. (%)
Serious adverse events, by No. of patients (%) (n = 80, 15 days): 1 (1.3) No. (%)
Shortness of breath, No. of adverse events (%) (n = 80, 15 days): 2 (2.5) No. (%)
Teeth chattering, No. of adverse events (%) (n = 80, 15 days): 1 (1.3) No. (%)
Vasovagal syncope, No. of adverse events (%) (n = 80, 15 days): 1 (1.3) No. (%)
Ache in chest wall (ribs/sternum) present during the course of COVID-19, % [2]: (33%)
Ache in chest wall (ribs/sternum) present within past 48 hours at follow-up, % [2]: (11%)
Chest pain that worsens when taking a deep breath, present during the course of COVID-19, % [2]: (37%)
Chest pain that worsens when taking a deep breath, present within past 48 hours at follow-up, % [2]: (17%)
Chest pressure present during the course of COVID-19, % [2]: (54%)
Chest pressure present within past 48 hours at time of follow-up, % [2]: (17%)
Chest tightness present during the course of COVID-19, % [2]: (54%)
Chest tightness present within past 48 hours at follow-up, % [2]: (17%)
Pain deep inside the chest present during the course of COVID-19, % [2]: (31%)
Pain deep inside the chest present within past 48 hours at follow-up, % [2]: (9%)
Sharp chest pains present during the course of COVID-19, % [2]: (33%)
Sharp chest pains present within past 48 hours at follow-up, % [2]: (13%)
reduction in hospitalizations [3, 6]: Summary of the two randomized clinical trial data demonstrate a 25%
reduction in progression to severe disease with hypoxia ≤92%, ER visit >6 hour (with hypoxia), or hospitalizations [3, 6]: reduction in hospitalizations and 36% reduction in progression to severe
reduction in hospitalizations ([3]; intent to treat, vs placebo): 25%
Number needed to treat ([3]; pooled): approximately 20
Hospitalization, Absolute Risk Reduction [3, 7]: 3.1%
Mortality, Absolute Risk Reduction [3, 7]: 0.9%
Progression to Severe COVID-19, Absolute Risk Reduction [3, 7]: 5.4%
Hospitalization, % [3, 8]: 9.3%
Hospitalization, n/N [3, 8]: (76/821)
Mortality, % [3, 8]: 2.1%
Mortality, n/N [3, 8]: (17/821)
Progression to Severe COVID-19 (Hospitalization or ER Visit >6 hr or Hypoxia <92%), % [3, 8]: 9.6%
Progression to Severe COVID-19, n/N [3, 8]: (79/821)
volume of distribution [V/F] ([4]; one-compartment model): 928 L
Free fraction in plasma ([4]; unbound to plasma proteins): 20%
Nausea, % of patients ([5]; 35,368 people, 66 studies): 15.7%
Another serious adverse event (suicide attempt, depression, death, accidental injury) ([5]; in vivo): < 0.4%
Serious adverse events requiring hospitalization ([5]; in vivo): 1.6%
Serious adverse events, % of people ([5]; taking the medication for a psychiatric disorder): approximately 2.0%
